Consider eleven compounds from patent US8754069B2, “Betulinic acid derivatives with antiviral activity” (priority 2011, dated 2014).

By EC50 is commonly meant the concentration giving half of the maximal effect.

Some results are limits rather than exact numbers.

For this experiment, the system named is recombinant NL4-3 virus (NLRluc, Renilla luciferase in nef, Gag P373S) in MT-2 cells. Description: HIV Cell Culture Assay (luciferase reporter virus in MT-2 cells). Format: cell-based. The note with it: NL43, 96 h, read-out: 10% FBS (EC50, uM). On the procedure: HIV Cell Culture Assay—MT-2 cells and 293T cells were obtained from the NIH AIDS Research and Reference Reagent Program. MT-2 cells were propagated in RPMI 1640 media supplemented with 10% heat inactivated fetal bovine serum, […]. The 293T cells were propagated in DMEM media supplemented with 10% heat inactivated fetal bovine serum (FBS), 100 units/ml penicillin G and 100 μg/ml streptomycin. The proviral DNA clone of NL4-3 was obtained from the NIH AIDS Research and Reference Reagent Program. A recombinant NL4-3 virus, in which a section of the nef gene from NL4-3 was replaced with the Renilla luciferase gene, was used as a reference virus. In addition, residue Gag P373 was converted to P373S. Briefly, the recombinant virus was prepared by transfection of the altered proviral clone of NL4-3. Transfections were performed in 293T cells using LipofectAMINE PLUS from Invitrogen (Carlsbad, Calif.), according to manufacturer's instruction. The virus was titered in MT-2 cells using luciferase enzyme activity as a marker. Luciferase was quantitated using the Dual Luciferase kit from Promega (Madison, Wis.), with modifications to the manufacturer's protocol. The diluted Passive Lysis solution was pre-mixed with the re-suspended Luciferase Assay Reagent and the re-suspended Stop & Glo Substrate (2:1:1 ratio). Fifty (50) μL of the mixture was added to each aspirated well on assay plates and luciferase activity was measured immediately on a Wallac TriLux (Perkin-Elmer). Antiviral activities of inhibitors toward the recombinant virus were quantified by measuring luciferase activity in cells infected for 4-days with NLRluc recombinants in the presence serial dilutions of the inhibitor. Table 1 is the key for the data in Table 2. Results
For `C=C(C)[C@@H]1CC[C@]2(NCCN3CCS(=O)(=O)CC3)CC[C@]3(C)[C@H](CC[C@@H]4[C@@]5(C)CC[C@H](OC(=O)CC(C)(C)C(=O)O)C(C)(C)[C@@H]5CC[C@]43C)[C@@H]12` [Example 2, 4-(((1R,3aS,5aR,5bR,7aR,9S,11aR,13aR,13bR)-3a-((2-(1,1-dioxido-4-thiomorpholinyl)ethyl)amino)-1-isopropenyl-5a,5b,8,8,11a-pentamethylicosahydro-1H-cyclopenta[a]chrysen-9-yl)oxy)-2,2-dimethyl-4-oxobutanoic acid], the EC50 is under 0.1 µM.

For `C=C(C)[C@@H]1CC[C@]2(NCCN3CCOCC3)CC[C@]3(C)[C@H](CC[C@@H]4[C@@]5(C)CC[C@H](OC(=O)C(C)(C)CC(=O)O)C(C)(C)[C@@H]5CC[C@]43C)[C@@H]12` [Example 4, 3,3-dimethyl-4-oxo-4-((1R,3aS,5aR,5bR,7aR,9S,11aR,13aR,13bR)-5a,5b,8,8,11a-pentamethyl-3a-(2-morpholinoethylamino)-1-(prop-1-en-2-yl)icosahydro-1H-cyclopenta[a]chrysen-9-yloxy)butanoic acid], the EC50 is under 0.1 µM.

Regarding `C=C(C)[C@@H]1CC[C@]2(NCCN3CCOCC3)CC[C@]3(C)[C@H](CC[C@@H]4[C@@]5(C)CC[C@H](OC(=O)CC(C)(C)C(=O)O)C(C)(C)[C@@H]5CC[C@]43C)[C@@H]12` [Example 5, 2,2-dimethyl-4-oxo-4-((1R,3aS,5aR,5bR,7aR,9S,11aR,13aR,13bR)-5a,5b,8,8,11a-pentamethyl-3a-(2-morpholinoethylamino)-1-(prop-1-en-2-yl)icosahydro-1H-cyclopenta[a]chrysen-9-yloxy)butanoic acid], the EC50 is under 0.1 µM.

With `C=C(C)[C@@H]1CC[C@]2(NCCN3CCC(S(C)(=O)=O)CC3)CC[C@]3(C)[C@H](CC[C@@H]4[C@@]5(C)CC[C@H](OC(=O)C(C)(C)CC(=O)O)C(C)(C)[C@@H]5CC[C@]43C)[C@@H]12` [Example 8, 3,3-dimethyl-4-oxo-4-(((1R,3aS,5aR,5bR,7aR,9S,11aR,13aR,13bR)-5a,5b,8,8,11a-pentamethyl-3a-((2-(4-(methylsulfonyl)piperidin-1-yl)ethyl)amino)-1-(prop-1-en-2-yl)icosahydro-1H-cyclopenta[a]chrysen-9-yl)oxy)butanoic acid], the EC50 was under 0.1 µM.

With `C=C(C)[C@@H]1CC[C@]2(NCCN3CCS(=O)(=O)CC3)CC[C@]3(C)[C@H](CC[C@@H]4[C@@]5(C)CC[C@H](OC(=O)CC(C)(C)CC(=O)O)C(C)(C)[C@@H]5CC[C@]43C)[C@@H]12` [Example 3, 5-(((1R,3aS,5aR,5bR,7aR,9aR,9S,11aR,3aR,13bR)-3a-((2-(1,1-dioxido-4-thiomorpholinyl)ethyl)amino)-1-isopropenyl-5a,5b,8,8,11a-pentamethylicosahydro-1H-cyclopenta[a]chrysen-9-yl)oxy)-3,3-dimethyl-5-oxopentanoic acid], the EC50 is under 0.1 µM.

On to `CC(C)[C@@H]1CC[C@]2(NCCN3CCS(=O)(=O)CC3)CC[C@]3(C)[C@H](CC[C@@H]4[C@@]5(C)CC[C@H](OC(=O)CC(C)(C)C(=O)O)C(C)(C)[C@@H]5CC[C@]43C)[C@@H]12` [Example 6, 4-(((1S,3aS,5aR,5bR,7aR,9S,11aR,13aR,13bR)-3a-((2-(1,1-dioxido-4-thiomorpholinyl)ethyl)amino)-1-isopropyl-5a,5b,8,8,11a-pentamethylicosahydro-1H-cyclopenta[a]chrysen-9-yl)oxy)-2,2-dimethyl-4-oxobutanoic acid], for which the EC50 was under 0.1 µM.

Regarding `C=C(C)[C@@H]1CC[C@]2(NCCN3CCS(=O)(=O)CC3)CC[C@]3(C)[C@H](CC[C@@H]4[C@@]5(C)CC[C@H](OC(=O)C(C)(C)CC(=O)O)C(C)(C)[C@@H]5CC[C@]43C)[C@@H]12` [Example 1, 4-(((1R,3aS,5aR,5bR,7aR,9S,11aR,13aR,13bR)-3a-((2-(1,1-dioxido-4-thiomorpholinyl)ethyl)amino)-1-isopropenyl-5a,5b,8,8,11a-pentamethylicosahydro-1H-cyclopenta[a]chrysen-9-yl)oxy)-3,3-dimethyl-4-oxobutanoic acid], the EC50 was under 0.1 µM.

`C=C(C)[C@@H]1CC[C@]2(NCCN3CCN(S(C)(=O)=O)CC3)CC[C@]3(C)[C@H](CC[C@@H]4[C@@]5(C)CC[C@H](OC(=O)CC(C)(C)C(=O)O)C(C)(C)[C@@H]5CC[C@]43C)[C@@H]12` [Example 11, 2,2-dimethyl-4-oxo-4-(((1R,3aS,5aR,5bR,7aR,9S,11aR,11bR,13aR,13bR)-5a,5b,8,8,11a-pentamethyl-3a-((2-(4-(methylsulfonyl)piperazin-1-yl)ethyl)amino)-1-(prop-1-en-2-yl)icosahydro-1H-cyclopenta[a]chrysen-9-yl)oxy)butanoic acid]: the EC50 is under 0.1 µM.

Turning to `C=C(C)[C@@H]1CC[C@]2(NCCN(C)C)CC[C@]3(C)[C@H](CC[C@@H]4[C@@]5(C)CC[C@H](OC(=O)CC(C)(C)C(=O)O)C(C)(C)[C@@H]5CC[C@]43C)[C@@H]12` [Example 10, 4-(((1R,3aS,5aR,5bR,7aR,9S,11aR,13aR,13bR)-3a-((2-(dimethylamino)ethyl)amino)-5a,5b,8,8,11a-pentamethyl-1-(prop-1-en-2-yl)icosahydro-1H-cyclopenta[a]chrysen-9-yl)oxy)-2,2-dimethyl-4-oxobutanoic acid], the EC50 was under 0.1 µM.

For `CC(C)[C@@H]1CC[C@]2(NCCN3CCS(=O)(=O)CC3)CC[C@]3(C)[C@H](CC[C@@H]4[C@@]5(C)CC[C@H](OC(=O)CC(C)(C)CC(=O)O)C(C)(C)[C@@H]5CC[C@]43C)[C@@H]12` [Example 7, 5-(((1S,3aS,5aR,5bR,7aR,9aR,9S,11aR,3aR,13bR)-3a-((2-(1,1-dioxido-4-thiomorpholinyl)ethyl)amino)-1-isopropyl-5a,5b,8,8,11a-pentamethylicosahydro-1H-cyclopenta[a]chrysen-9-yl)oxy)-3,3-dimethyl-5-oxopentanoic acid], the EC50 was under 0.1 µM.

On to `C=C(C)[C@@H]1CC[C@]2(NCCN3CCC(S(C)(=O)=O)CC3)CC[C@]3(C)[C@H](CCC4[C@@]5(C)CC[C@H](OC(=O)CC(C)(C)C(=O)O)C(C)(C)[C@@H]5CC[C@]43C)[C@@H]12` (stereo partly drawn) [Example 9, 2,2-dimethyl-4-oxo-4-(((1R,3aS,5aR,5bR,7aR,9S,11aR,13aR,13bR)-5a,5b,8,8,11a-pentamethyl-3a-((2-(4-(methylsulfonyl)piperidin-1-yl)ethyl)amino)-1-(prop-1-en-2-yl)icosahydro-1H-cyclopenta[a]chrysen-9-yl)oxy)butanoic acid], for which the EC50 was under 0.1 µM.
